According to patent US20250302306A1, “TUMOR TARGETING PROBE FOR IMAGE GUIDED SURGICAL METHODS” (priority 2021, published 2025):

What was measured:
MDA-MB-231-iRFP tumors = test: Tumor margin assessment: colocalization with tumor marker iRFP, ex vivo Odyssey scan; assay type: in vivo, athymic mice; details: 0.5 mg/kg i.v., 24 hr
Experimental: In FIG. 3B, Athymic mice bearing MDA-MB-231-iRFP tumors were injected i.v. with either ICG-p28 or ICG alone at 0.5 mg/kg. Twenty-four hours after injection, representative ex vivo images of the tumour and surrounding soft tissues for the ICG-p28 group (top row) and the ICG alone group (bottom row) were taken with an Odyssey scanner. The dotted line in the images indicates the outer edge of the soft tissue. iRFP (red: 700 nm); ICG-p28 or ICG (green: 800 nm); and colocalization (yellow-orange). In FIG. 3C, Concordance rate of the fluorescent signal in each group [the ICG-p28 group (n=10) and the ICG alone group (n=5)]; **: P<0.01.
ICG-p28 or ICG alone at 0.5 mg/kg was injected i.v. into athymic mice inoculated with MDA-MB-231-iRFP cells; 24 hr later, the xenografted tumors and surrounding tissues were removed.
MDA-MB-231-iRFP cells (1.0×10^6 cells in 0.1 ml PBS) were inoculated s.c. into the right back of mice. Once mice developed tumors (˜200 mm^3), they were injected i.v. with ICG-p28 or ICG at 0.5 mg/kg-b.w. Twenty-four hours after injection, tumors and the surrounding tissue were resected. Specimens were imaged ex vivo with an Odyssey scanner with the 700 nm channel for iRFP and the 800 nm channel for ICG-p28 or ICG alone. The area measurements were performed using ImageJ. The mean±SD values were calculated.

[1] = test system: MDA-MB-231 human breast cancer tumors; test: In vivo kinetic analysis: tumor/normal tissue NIR signal ratio (TBR); set-up: species or system athymic mice
Experimental: Since fluorescent imaging techniques rely on the concentration of each contrast agent, the optimum dose range for ICG-p28 in mice with MDA-MB-231 human breast cancer tumors was determined with the PDE unit. Each mouse was injected i.v. with ICG-p28 or ICG alone at 0.2-1.0 mg/kg (˜50 to 250 nM). The mice were imaged at various time points (6-72 hr), and the ratio of the NIR signal intensity of the tumor tissue and normal tissue (thigh) was calculated.
ICG-p28 or ICG alone was injected intravenously (i.v.) (tail vein) at 0.2, 0.5, or 1 mg/kg-b.w. Animals were imaged using an Odyssey scanner (LI-COR Biosciences) at 6-72 hr post i.v. administration. The tumor background ratio (TBR) was determined using ImageJ software (National Institutes of Health), where a region of interest (ROI) was drawn over the whole tumor and a background ROI was drawn over adjacent tissue. An ROI was manually generated around each tumor (800 nm channel).

[2] = test system: multiple breast cancer animal models
[3] = ICG as used in clinical practice; cited from earlier work
TNBC PDX tumors [4] = test: Tumor recurrence follow-up after image-guided surgery in PDX model; assay type: in vivo, NSG mice
Experimental: Each agent was injected i.v. (tail vein) with the corresponding compound at the equivalent of ICG-p28 0.5 mg/kg-b.w. Twenty-four hours after injection, all surgical procedures were started under sterile conditions. Following anesthesia administration, the PDE imaging system was used to monitor NIR fluorescence throughout the entire surgical procedure. Tumors with a 2-mm safety margin and the surrounding mammary tissues at the 6 and 12 o'clock positions were removed in real time under guidance of the PDE imaging system. […] Following tumor excision, the skin incisions were closed using a nylon suture, and the mice were returned to their cages. After tumor resection, the mice were kept in their cages for an additional four weeks and monitored for tumor recurrence. Tumor recurrence was monitored by palpitation of the surgical area. Four weeks after surgery, the mice were evaluated to determine whether any of the tumors had recurred due to remnant positive margins at the resection site.

TNBC PDX tumors [5] = test: Detection of residual cancer cells in the tumor margin by huAlu PCR; assay type: in vivo, NSG mice; details: equivalent of ICG-p28 0.5 mg/kg i.v., margins at 6 and 12 o'clock
Experimental: During image-guided surgery, tumors with a 2-mm safety margin and the surrounding mammary tissues at the 6 and 12 o'clock positions were removed in real time under guidance of the PDE imaging system (FIG. 6A). These samples were collected to undergo huAlu PCR as well as traditional histological analyses.
Each agent was injected i.v. (tail vein) with the corresponding compound at the equivalent of ICG-p28 0.5 mg/kg-b.w. Twenty-four hours after injection, all surgical procedures were started under sterile conditions. Following anesthesia administration, the PDE imaging system was used to monitor NIR fluorescence throughout the entire surgical procedure. […] After tumor resection, the mice were kept in their cages for an additional four weeks and monitored for tumor recurrence. Tumor recurrence was monitored by palpitation of the surgical area. Four weeks after surgery, the mice were evaluated to determine whether any of the tumors had recurred due to remnant positive margins at the resection site.
A quantitative analysis using human-specific Alu sequence (huAlu) was performed on samples collected from the margins. […] We standardized the quantitative detection of huAlu in resected tumors and surrounding margin tissues according to previously published methods. […] The mean±SD values were calculated.

TNBC PDX tumors [6] = test: Histological analysis (H&E, Ki-67) of tumor margin samples; assay type: in vivo, NSG mice; details: H&E and Ki67 staining of margin samples
Experimental: We next performed traditional histological analyses with H&E and proliferative marker Ki67 staining on the set of tumor margin samples that were used for the Alu PCR assays.
Resected tissues were placed in containers prefilled with buffered 3.7% formalin (Anatech) and fixed for 24 hr. Formalin was replaced with 70% ethanol following fixation. Samples were paraffin-embedded, and blocks were cut into 4 μm-thick sections and mounted onto slides. H&E- and Ki-67-stained slides were analyzed by a pathologist blinded to the experimental groups and surgical resection results. The pathologist was responsible for determining a tumor's presence, margin status, and general characteristics of resected tissues.

[7] = test system: MDA-MB-231 or IOWA-IT orthotopic MFP xenograft tumors; test: Intraoperative imaging of orthotopic xenografts, tumor recurrence follow-up
[8] = test system: advanced solid tumors; recurrent and refractory CNS tumors; details: human, in vivo; cited from earlier work

Molecule | concordance rate of 700 and 800 nm NIR signals (MDA-MB-231-iRFP tumors) | tumor/normal tissue ratio of NIR signal intensity ([1]; 0.2-1.0 mg/kg i.v., 24 hr, tumor vs thigh) | TBR ([1]; ICG alone, tumor site not distinguishable) | tumor recurrence rate overall ([2]; multiple models combined, N of 24) | average recurrent tumor volume overall ([2]; multiple subtypes of breast cancer combined) | half-life [3] | tumor recurrence rate for the surgical site (TNBC PDX tumors [4]; four weeks after image-guided surgery) | average volume of the recurrent tumors (TNBC PDX tumors [4]; four weeks after surgical resection) | log (huAlu DNA/mGAPDH DNA) in surrounding tissues (TNBC PDX tumors [5]) | positive margin rate (TNBC PDX tumors [6]) | adverse events related to administration during tumor removal ([7]; 0.5 mg/kg i.v.) | tumor recurrence at the surgical sites ([7]; 0.5 mg/kg i.v., four weeks after tumor resection) | average volume of the recurrent tumors ([7]; four weeks after tumor resection) | adverse effects, toxicity or immunogenicity [8]
CC1(C)C(/C=C/C=C/C=C/C=C2\N(CCCCS(=O)(=O)O)c3ccc4ccccc4c3C2(C)C)=[N+](CCCCS(=O)(=O)[O-])c2ccc3ccccc3c21 [ICG alone, indocyanine green] | 12% | ~1 | ~1.1 | 33% | 1,188 mm^3 | 2 to 4 min | 50.0% | 1,952 mm^3 | −0.9 | 19% | no apparent adverse events | 25.0% | 423 mm3 | 
p28: peptide derived from Pseudomonas aeruginosa azurin, amino acids 50-77 (SEQ ID NO: 5) |  |  |  |  |  |  |  |  |  |  |  |  |  | no significant adverse effects, toxicity or immunogenicity
